From patent publication US20080221078A1, “Use of a CB1 Antagonist for Treating Side Effects and Negative Symptoms of Schizophrenia” (priority 2005, published 2008)

Assays:
[1] = test system: rats; experiment: MK-801-induced persistent latent inhibition (conditioned emotional response procedure); format: in vivo, rat
Source text: When the bottle was not present, the hole was covered by a metal lid. Licks were detected by a Campden Instruments drinkometer. The preexposed to-be-conditioned stimulus was a 10 sec, 80 dB, 2.8 kHz tone produced by a Sonalert module. Shock was supplied through the floor by a Campden Instruments shock generator and shock scrambler set at 0.5 mA and 1 sec duration. Equipment programming and data recording were computer controlled.
Water in the test apparatus was given in addition to the daily ration of 1 h given in the home cages.
Shock immediately followed tone termination. The first tone-shock pairing was given 5 min after the start of the session. After the last pairing, rats were left in the experimental chamber for an additional 5 min.
When the rat completed 75 licks the tone was presented for 5 min. The following times were recorded: Time to first lick, time to complete licks 1-50, time to complete licks 51-75 (before tone onset) and time to complete licks 76-100 (after tone onset). Times to complete licks 76-100 were logarithmically transformed to allow parametric analysis of variance. Longer log times indicate stronger suppression of drinking.

[2] = test system: Male Sprague-Dawley rats; experiment: Amphetamine-induced locomotion; format: in vivo, rat
Description: (§1) Animals: Male CD-1 mice (Charles River Laboratories) weighing 20-30 g were used. Male Sprague-Dawley rats (Charles River Laboratories) weighing 250-433 g were used. […] Procedure: A standard automated locomotion assay was employed (see, for example: R. Christopher Pierce and Peter Kalivas. (1997) Locomotor Behavior. In: Current Protocols in Neuroscience, Volume 3, 8.1.1-8.1.8. G. P. Taylor, Editor. New York: John Wiley & Sons, Inc.). Horizontal activity was measured by beam breaks of photocells lining the chamber exterior to the activity boxes. The activity was measured for 60 min during spontaneous locomotion or 90 min for the PCP or amphetamine-induced assays. Example 2 was administered per os (po) with a 1 hr pre-treatment. […] PCP or amphetamine was administered ip or subcutaneous (sc), respectively, with no pre-treatment. When pre-treatment time elapsed for each rodent, the activity cage was transferred from its holding rack and placed into its own locomotion chamber. Independent start time is possible with the recording of activity commencing almost immediately. The computer automatically times out each chamber individually when the session has ended. Drugs: Doses of Example 2 for mice were 0.3, 1, 3, and 10 mg/kg, p.o. The lowest dose was not tested in spontaneous locomotion for rats. The three highest doses of Example 2 were tested against PCP-induced and amphetamine-induced locomotion in mice and rats, respectively. The conventional antipsychotic haloperidol was used in co-administration with Example 2 (1, 3, and 10 mg/kg) at the doses of 0.1 and 0.2 mg/kg in mice to reverse PCP-induced locomotion. Haloperidol was co-administered at the dose of 0.3 mg/kg in rats to reverse amphetamine-induced locomotion.
(§2) Phencyclidine and amphetamine were dissolved in distilled water.

[3] = test system: Male Sprague-Dawley rats; experiment: Antipsychotic induced catalepsy (bar test); conditions: for olanzapine-induced catalepsy: olanzapine 10 mg/kg ip
Description: (§3) Animals: Male Sprague-Dawley rats (Charles River Laboratories) weighing 267-457 g were used. The animals were housed under standard laboratory conditions as outlined in the NIH Guide for Care and Use of Laboratory Animals. They were maintained on a 12:12 light/dark cycle with tap water and Lab Diet rodent chow ad libitum. Rats were acclimatized to the experimental room for 60 min prior to injections. Procedure: The test for catalepsy consists of placing an individual animal in a white translucent plastic box (26×20×15 cm) with a wooden dowel mounted horizontally 10 cm from the floor and 4 cm from one end of the box. The floor is covered with approximately 1 cm of bedding material. Test animals are transferred from the vivarium in their home cages to the experimental room and are allowed to acclimatize for 60 mins. Five animals are kept in a cage. The animals are transferred into another cage after treatment. […] 30 mins after the second treatment, animals were placed individually in the white translucent plastic boxes and tested for catalepsy following a one minute acclimatization period. A group of five animals are tested at a time. Each treatment group consists of 10 animals.
(§4) At the end of the one minute acclimation period, each animal is gently grasped around the shoulders and under the forepaws, and gently placed on the wooden dowel. The amount of time each rat spends with at least one forepaw on the bar determined for a maximum period of 180 seconds. This is repeated three times.
(§5) Haloperidol was used at the dose of 1 mg/kg.
(§6) Haloperidol was dissolved in distilled water via dilution of a 5 mg/ml stock solution in distilled water. Olanzapine was dissolved in three drops of HCl prior to the addition of distilled water to full volume.

[4] = Antipsychotic induced catalepsy (bar test); conditions: male, Sprague-Dawley, rat, in vivo, intraperitoneal
Description: as §3, §4, §5, §6

[5] = test system: Female Wistar rats on high fat diet; experiment: Antipsychotic (olanzapine) induced weight gain
Source text: Animals: Female Wistar rats on high fat diet were used in this Example.

[6] = test system: Male CD-1 mice; experiment: PCP-induced locomotion; format: in vivo, mouse
Description: as §1, §2

[7] = test system: Male Sprague Dawley rats; experiment: Holeboard test (working memory performance); format: in vivo, rat
Source text: Similarly, a working memory performance in a rat hole board model has been used to measure various cognition deficits. The hole board task is a well-known and widely used assay to measure working and reference memory in rodents. This model utilizes a board with 8 holes, each baited with a food reward, thus taking advantage of the rodent's natural propensity to forage for food. In a modified version, it has now been able to assess improvements in working memory performance without the use of amnestic agents. Male Sprague Dawley rats are allowed to find and consume 4 of the 8 rewards and then removed to the home cage for 2 minutes. They are then returned and allowed to find and consume the remaining 4 rewards. Any returns to holes already visited are considered working memory errors.
Animals: Male Sprague Dawley rats (Charles River) were housed on a 12 hour light/dark cycle, with lights on at 06:00. Rats were maintained at 80% of their normal body weight, with average starting weights at 200-220 grams. Rats were acclimated to the testing chamber (Med-Associates, Inc. hole board in a ventilated, sound-attenuating cubicle) for four 10-minute trials over a two-day period 24 hours prior to drug treatments. The testing chamber contains eight holes, each of which is baited with a food reward (cocoa puff). Procedure: Each experiment was carried over two-three days, with a 3 day (experiment 1), 4 day (experiment 2), and 3 day (experiment 3) washout in between. Thirty two animals were used for each experiment, with each animal pseudo-randomly assigned to treatment groups such that each animal received two of the four-five treatments, with an even distribution of all possible treatment-treatment combinations. There were a total of 16 animals per treatment group. On test days, rats were injected intraperitoneally (i.p.) with N-{1-[bis(4-chlorophenyl)methyl]azetidin-3-yl}-N-(3,5-difluorophenyl)methylsulfonamide (Example 2) (Exp 1: 0.3, 1, or 3 mg/kg; Exp 2: 1, 3 or 10 mg/kg) or vehicle (distilled water with 1% tween). For Exp 3, rats were injected i.p. with risperidone followed by Example 2 (Exp 3: 0.010, 0.10, or 1.0 mg/kg with 3 mg/kg Example 2) or vehicle (0.9% NaCl with 1% tween). The rats were then placed in the test chamber 60 minutes later. After consuming 4 food rewards, the rats were removed from the chamber for 2 minutes and returned to their home cage. They were then returned to the chamber and allowed to retrieve and finish the remaining four rewards, or for a total of 10 minutes. […] The number of visits to holes that they have already visited were noted. Drugs: Doses of Example 2 were 0.3, 1 and 3 mg/kg (experiment 1) and 1, 3 and 10 mg/kg (experiment 2). Example 2 was put into suspension with distilled water (exp 1 & 2) or 0.9% NaCl (exp 3), with the addition of tween 80. Doses of risperidone (antipsychotic, Sigma) were 0.010, 0.10, and 1.0 mg/kg (experiment 3). risperidone was solubilized in 0.9% NaCl with the addition of 1% tween 80,

With `C[C@]12N[C@H](Cc3ccccc31)c1ccccc12` [MK-801, dizocilpine] the “latent inhibition (LI) with 40 preexposures and 5 conditioning trials” value ([1]; MK-801 0.05 mg/kg i.p., 30 minutes before conditioning) was “showed LI in spite of extended conditioning”.
With `NCC(=O)O` [glycine, Glycine] the “MK-801-induced abnormally persistent LI” value ([1]; glycine 0.8 g/kg i.p., 30 minutes prior to conditioning) was “reversed”.
With `O=C(CCCN1CCC(O)(c2ccc(Cl)cc2)CC1)c1ccc(F)cc1` [haloperidol, reference compound] the “reversal of locomotor hyperactivity” value ([2]; haloperidol 0.3 mg/kg ip) was “highly significant reversal”, the “induction of catalepsy compared to vehicle treated animals” value ([3]; haloperidol 1 and 3 mg/kg) was “significantly induces catalepsy” and the ED50 at 30 min [4] was 0.64 mg/kg.
For “N-{1-[Bis(4-chlorophenyl)methyl]azetidin-3-yl}-N-(3,5-difluorophenyl)methylsulfonamide [Example 2]”, the “weight gain vs. saline controls” value ([5]; 10 mg/kg Example 2 i.p. with olanzapine 3 mg/kg i.p.) was “not significant from saline controls”, the weight vs. saline ([5]; Example 2 alone 10 mg/kg i.p.) was “no significant effect” and the “weight gain elicited by olanzapine” value ([5]; co-administration of Example 2 1, 3, and 10 mg/kg i.p. with olanzapine 3 mg/kg i.p.) was “dose dependent attenuation”. The “reversal of locomotor hyperactivity induced by PCP” value ([6]; Example 2 alone 1, 3, and 10 mg/kg p.o.) was “no significant reversal”, the “effect of co-treatment with haloperidol on PCP-induced locomotion” value ([6]; haloperidol 0.1 and 0.2 mg/kg ip with Example 2 1, 3, 10 mg/kg p.o.) was “yielded the same effects whether or not Example 2 was present or absent” and the “effect of co-treatment with olanzapine on PCP-induced locomotion” value ([6]; olanzapine 0.03 and 0.3 mg/kg ip with Example 2 1, 3, 10 mg/kg p.o.) was “yielded the same effects whether or not Example 2 was present or absent”. The “reversal of locomotor hyperactivity induced by d-AMPH” value ([2]; rats, Example 2 alone 1, 3, and 10 mg/kg p.o.) was “no significant reversal”, the “effect of co-treatment with haloperidol on amphetamine-induced locomotion” value ([2]; rats, haloperidol 0.3 mg/kg ip with Example 2) was “yielded the same effects whether or not Example 2 was present or absent” and the “effect of co-treatment with olanzapine on amphetamine-induced locomotion” value ([2]; rats, olanzapine 1 and 3 mg/kg ip with Example 2) was “yielded the same effects whether or not Example 2 was present or absent”. For the same compound, the “number of working memory errors compared to vehicle treated animals” value ([7]; Experiment 1, 0.3 mg/kg i.p., after 2 minute delay) was “but not the 0.3 or 1 mg/kg doses”, the “number of working memory errors compared to vehicle treated animals” value ([7]; Experiment 1, 1 mg/kg i.p., after 2 minute delay) was “but not the 0.3 or 1 mg/kg doses” and the “number of working memory errors compared to vehicle treated animals” value ([7]; Experiment 1, 3 mg/kg i.p., after 2 minute delay, p<0.05) was “significant decrease”. The “number of working memory errors compared to vehicle treated animals” value ([7]; Experiment 2, 3 mg/kg i.p., after 2 minute delay, p<0.05) was “significant decrease”, the “number of working memory errors compared to vehicle treated animals” value ([7]; Experiment 2, 10 mg/kg i.p., after 2 minute delay, p<0.05) was “significant decrease” and the “number of working memory errors compared to vehicle treated animals” value ([7]; Experiment 3, 3 mg/kg Example 2 in combination with 0.10 mg/kg risperidone i.p., p<0.05) was “significant decrease”. For the same compound, the “number of working memory errors compared to vehicle treated animals” value ([7]; Experiment 3, 3 mg/kg i.p. Example 2 alone, p<0.05) was “significant decrease”, the “minimum effective dose for improvement in working memory performance” value ([7]; i.p.) was 3 mg/kg and the olanzapine-induced catalepsy ([3]; Example 2 3 mg/kg orally) was “significantly reversed”. The haloperidol-induced catalepsy ([3]; Example 2 10 mg/kg orally, haloperidol 1 mg/kg ip) was “significantly reversed”, the olanzapine-induced catalepsy ([3]; Example 2 10 mg/kg orally) was “significantly reversed” and the “MK801-induced persistent latent inhibition” value ([1]; 1, 3 and 10 mg/kg i.p., 60 minutes prior to pre-exposure and conditioning) was “reversed”.
